Source: ChEMBL document CHEMBL3621147, “An azumamide C analogue without the zinc-binding functionality” (Medchemcomm, 2014)
pKi: −log10 of the molar value. The source made the active and inactive calls. The rule behind the calls is not given here.

Experiments:
[1] = system: EB-3; details: Homo sapiens, at 10 µM
Description: Antiproliferative activity against human EB3 cells at 10 uM incubated for 3 days by MTT assay

[2] = Antiproliferative activity against human EB3 cells assessed as growth inhibition incubated for 3 days by MTT assay; format: functional; details: EB-3, 72 h
[3] = target: Histone deacetylase 4 (Homo sapiens) (UniProt P56524); assay: Inhibition of human recombinant HDAC4 using Ac-Leu-Gly-Lys (Tfa)-AMC substrate incubated for 30 mins by fluorescence assay
[4] = target: T1, Histone deacetylase 3/Nuclear receptor corepressor 2 (HDAC3/NCoR2) (Homo sapiens, UniProt O15379); assay: Inhibition of human recombinant HDAC3/NCoR2 using Ac-Leu-Gly-Lys (Ac)-AMC substrate incubated for 45 mins by fluorescence assay based continuous assay protocol; format: protein-complex assay
T1 sequence (O15379 whole entry): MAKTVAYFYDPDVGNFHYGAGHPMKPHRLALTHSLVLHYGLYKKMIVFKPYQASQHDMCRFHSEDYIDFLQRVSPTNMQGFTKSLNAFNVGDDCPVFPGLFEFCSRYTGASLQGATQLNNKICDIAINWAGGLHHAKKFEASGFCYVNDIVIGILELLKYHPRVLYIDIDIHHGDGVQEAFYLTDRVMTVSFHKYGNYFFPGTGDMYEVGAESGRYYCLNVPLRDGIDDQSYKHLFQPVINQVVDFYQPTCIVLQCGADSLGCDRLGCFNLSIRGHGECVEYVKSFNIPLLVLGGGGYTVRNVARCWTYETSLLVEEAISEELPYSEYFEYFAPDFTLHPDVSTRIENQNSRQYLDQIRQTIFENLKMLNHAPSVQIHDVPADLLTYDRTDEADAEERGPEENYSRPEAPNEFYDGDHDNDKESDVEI
T1 sequence (Q9Y618 whole entry, further chain): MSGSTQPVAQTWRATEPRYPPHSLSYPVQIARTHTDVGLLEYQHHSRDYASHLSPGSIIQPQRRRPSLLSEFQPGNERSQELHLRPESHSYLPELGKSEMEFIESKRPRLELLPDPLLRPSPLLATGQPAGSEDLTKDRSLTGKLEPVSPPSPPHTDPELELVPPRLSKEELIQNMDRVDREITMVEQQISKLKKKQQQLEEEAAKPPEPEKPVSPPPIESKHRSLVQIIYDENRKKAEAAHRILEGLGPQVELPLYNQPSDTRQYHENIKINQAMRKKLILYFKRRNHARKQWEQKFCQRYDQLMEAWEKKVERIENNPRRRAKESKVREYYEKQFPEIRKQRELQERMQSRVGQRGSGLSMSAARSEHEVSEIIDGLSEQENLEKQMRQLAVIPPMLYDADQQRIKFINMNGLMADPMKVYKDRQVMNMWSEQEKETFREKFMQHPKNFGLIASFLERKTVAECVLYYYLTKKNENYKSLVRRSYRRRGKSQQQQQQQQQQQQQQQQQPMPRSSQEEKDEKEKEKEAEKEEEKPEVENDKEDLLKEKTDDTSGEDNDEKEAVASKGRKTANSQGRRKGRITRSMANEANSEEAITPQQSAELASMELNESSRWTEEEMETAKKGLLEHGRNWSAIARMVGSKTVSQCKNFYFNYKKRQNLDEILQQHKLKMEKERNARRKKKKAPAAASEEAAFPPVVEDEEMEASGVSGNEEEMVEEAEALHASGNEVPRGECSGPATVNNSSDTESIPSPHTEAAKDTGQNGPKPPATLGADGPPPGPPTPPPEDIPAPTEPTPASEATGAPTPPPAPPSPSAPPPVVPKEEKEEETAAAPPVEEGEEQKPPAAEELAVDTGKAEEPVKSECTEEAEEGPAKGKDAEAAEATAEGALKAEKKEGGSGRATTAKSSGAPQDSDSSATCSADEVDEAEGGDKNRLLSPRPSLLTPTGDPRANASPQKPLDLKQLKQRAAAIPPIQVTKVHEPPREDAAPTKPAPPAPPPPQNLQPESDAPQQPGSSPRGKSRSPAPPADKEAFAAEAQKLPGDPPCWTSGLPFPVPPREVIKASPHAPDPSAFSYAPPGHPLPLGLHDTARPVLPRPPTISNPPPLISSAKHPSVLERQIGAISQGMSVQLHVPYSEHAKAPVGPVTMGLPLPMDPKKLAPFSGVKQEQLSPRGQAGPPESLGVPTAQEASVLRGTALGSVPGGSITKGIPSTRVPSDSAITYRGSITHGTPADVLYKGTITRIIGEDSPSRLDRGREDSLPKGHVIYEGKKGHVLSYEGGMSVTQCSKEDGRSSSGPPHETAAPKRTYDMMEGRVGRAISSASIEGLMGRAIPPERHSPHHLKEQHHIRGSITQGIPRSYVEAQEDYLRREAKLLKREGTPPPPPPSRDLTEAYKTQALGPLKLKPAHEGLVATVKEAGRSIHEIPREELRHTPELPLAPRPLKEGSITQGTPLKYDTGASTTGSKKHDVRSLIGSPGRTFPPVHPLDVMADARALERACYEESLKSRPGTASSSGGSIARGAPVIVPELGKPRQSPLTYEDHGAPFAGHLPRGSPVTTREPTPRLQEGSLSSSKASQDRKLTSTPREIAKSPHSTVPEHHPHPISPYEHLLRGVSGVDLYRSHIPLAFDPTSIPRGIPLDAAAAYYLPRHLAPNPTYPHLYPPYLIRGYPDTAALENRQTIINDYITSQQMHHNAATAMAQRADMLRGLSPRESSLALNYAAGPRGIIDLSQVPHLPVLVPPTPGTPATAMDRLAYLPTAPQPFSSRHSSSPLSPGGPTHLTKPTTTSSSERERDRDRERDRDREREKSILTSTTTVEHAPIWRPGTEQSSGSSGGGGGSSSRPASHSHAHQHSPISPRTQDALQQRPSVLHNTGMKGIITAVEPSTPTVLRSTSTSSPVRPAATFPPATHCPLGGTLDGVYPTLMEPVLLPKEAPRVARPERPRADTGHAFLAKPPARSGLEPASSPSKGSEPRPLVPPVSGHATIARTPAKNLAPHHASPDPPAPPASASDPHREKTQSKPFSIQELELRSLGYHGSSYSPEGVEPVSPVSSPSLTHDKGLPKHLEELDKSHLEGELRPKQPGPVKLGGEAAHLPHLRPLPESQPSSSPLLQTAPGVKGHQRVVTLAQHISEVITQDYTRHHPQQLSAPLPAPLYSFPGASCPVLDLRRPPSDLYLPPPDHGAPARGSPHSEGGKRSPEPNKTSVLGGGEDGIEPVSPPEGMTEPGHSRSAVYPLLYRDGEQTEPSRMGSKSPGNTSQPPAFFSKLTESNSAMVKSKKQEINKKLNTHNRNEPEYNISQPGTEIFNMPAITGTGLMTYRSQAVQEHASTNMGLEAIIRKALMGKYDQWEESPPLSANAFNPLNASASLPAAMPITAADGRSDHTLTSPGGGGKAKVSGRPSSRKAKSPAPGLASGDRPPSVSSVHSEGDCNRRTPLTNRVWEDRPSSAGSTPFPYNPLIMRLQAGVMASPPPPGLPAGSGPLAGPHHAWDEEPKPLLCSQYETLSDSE

[5] = target: T2, Histone deacetylase 8 (Homo sapiens) (UniProt Q9BY41); assay: Inhibition of human recombinant HDAC8 using Ac-Leu-Gly-Lys (Tfa)-AMC substrate incubated for 30 mins by fluorescence assay
T2 sequence (whole entry): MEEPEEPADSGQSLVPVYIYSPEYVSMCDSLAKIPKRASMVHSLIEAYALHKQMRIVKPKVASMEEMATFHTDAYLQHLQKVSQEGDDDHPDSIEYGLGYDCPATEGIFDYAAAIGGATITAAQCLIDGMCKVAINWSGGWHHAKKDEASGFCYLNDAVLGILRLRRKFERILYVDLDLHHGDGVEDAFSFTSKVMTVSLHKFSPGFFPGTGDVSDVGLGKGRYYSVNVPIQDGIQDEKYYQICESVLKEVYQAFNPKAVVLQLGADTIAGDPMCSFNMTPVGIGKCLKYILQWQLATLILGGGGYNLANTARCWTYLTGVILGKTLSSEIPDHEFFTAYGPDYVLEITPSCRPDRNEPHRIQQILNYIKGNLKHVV

[6] = target: T3, Histone deacetylase 11 (Homo sapiens, UniProt Q96DB2); assay: Inhibition of human recombinant HDAC11 using Ac-Leu-Gly-Lys (Ac)-AMC substrate incubated for 30 mins by fluorescence assay
T3 sequence (Q96DB2 whole entry): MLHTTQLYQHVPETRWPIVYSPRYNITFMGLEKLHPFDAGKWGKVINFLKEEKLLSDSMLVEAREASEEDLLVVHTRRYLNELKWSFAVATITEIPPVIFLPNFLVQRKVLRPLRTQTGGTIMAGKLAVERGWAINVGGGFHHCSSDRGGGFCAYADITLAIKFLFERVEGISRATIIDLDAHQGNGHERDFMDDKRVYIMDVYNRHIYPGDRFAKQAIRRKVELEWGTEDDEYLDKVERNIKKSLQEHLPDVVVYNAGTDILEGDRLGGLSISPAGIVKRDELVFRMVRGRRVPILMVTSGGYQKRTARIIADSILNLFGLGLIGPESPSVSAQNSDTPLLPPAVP

[7] = target: Histone deacetylase 9 (Homo sapiens) (UniProt Q9UKV0); assay: Inhibition of human recombinant HDAC9 using Ac-Leu-Gly-Lys (Tfa)-AMC substrate incubated for 30 mins by fluorescence assay
Histone deacetylase 9 (Homo sapiens), sequence (Q9UKV0 whole entry): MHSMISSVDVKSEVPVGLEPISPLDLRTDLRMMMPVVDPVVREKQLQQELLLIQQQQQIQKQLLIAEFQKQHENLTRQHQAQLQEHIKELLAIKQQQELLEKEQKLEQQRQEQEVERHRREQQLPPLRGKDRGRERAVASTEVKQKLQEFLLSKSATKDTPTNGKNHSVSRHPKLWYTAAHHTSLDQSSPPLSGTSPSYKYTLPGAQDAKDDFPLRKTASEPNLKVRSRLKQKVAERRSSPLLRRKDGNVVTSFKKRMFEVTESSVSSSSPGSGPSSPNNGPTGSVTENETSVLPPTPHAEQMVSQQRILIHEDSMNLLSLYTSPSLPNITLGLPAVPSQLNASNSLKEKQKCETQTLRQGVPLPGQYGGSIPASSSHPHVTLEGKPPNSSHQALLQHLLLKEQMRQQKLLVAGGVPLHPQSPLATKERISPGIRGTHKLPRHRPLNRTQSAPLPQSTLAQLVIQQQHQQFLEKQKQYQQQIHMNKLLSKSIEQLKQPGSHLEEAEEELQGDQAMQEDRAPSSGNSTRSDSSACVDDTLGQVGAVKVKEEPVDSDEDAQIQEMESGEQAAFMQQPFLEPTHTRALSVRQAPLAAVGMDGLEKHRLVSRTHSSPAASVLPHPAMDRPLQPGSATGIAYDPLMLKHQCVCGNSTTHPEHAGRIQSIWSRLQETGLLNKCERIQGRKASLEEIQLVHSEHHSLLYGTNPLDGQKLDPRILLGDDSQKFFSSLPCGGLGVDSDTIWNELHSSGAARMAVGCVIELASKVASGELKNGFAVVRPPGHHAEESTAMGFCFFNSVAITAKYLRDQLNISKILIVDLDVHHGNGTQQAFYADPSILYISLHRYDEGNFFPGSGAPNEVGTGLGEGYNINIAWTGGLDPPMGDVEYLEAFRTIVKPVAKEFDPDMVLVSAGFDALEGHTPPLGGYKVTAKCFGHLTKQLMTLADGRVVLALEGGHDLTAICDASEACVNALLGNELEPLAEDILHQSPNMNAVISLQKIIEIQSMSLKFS

[8] = target: T4, Histone deacetylase 7 (Homo sapiens) (UniProt Q8WUI4); assay: Inhibition of human recombinant HDAC7 using Ac-Leu-Gly-Lys (Tfa)-AMC substrate incubated for 30 mins by fluorescence assay
T4 sequence (whole entry): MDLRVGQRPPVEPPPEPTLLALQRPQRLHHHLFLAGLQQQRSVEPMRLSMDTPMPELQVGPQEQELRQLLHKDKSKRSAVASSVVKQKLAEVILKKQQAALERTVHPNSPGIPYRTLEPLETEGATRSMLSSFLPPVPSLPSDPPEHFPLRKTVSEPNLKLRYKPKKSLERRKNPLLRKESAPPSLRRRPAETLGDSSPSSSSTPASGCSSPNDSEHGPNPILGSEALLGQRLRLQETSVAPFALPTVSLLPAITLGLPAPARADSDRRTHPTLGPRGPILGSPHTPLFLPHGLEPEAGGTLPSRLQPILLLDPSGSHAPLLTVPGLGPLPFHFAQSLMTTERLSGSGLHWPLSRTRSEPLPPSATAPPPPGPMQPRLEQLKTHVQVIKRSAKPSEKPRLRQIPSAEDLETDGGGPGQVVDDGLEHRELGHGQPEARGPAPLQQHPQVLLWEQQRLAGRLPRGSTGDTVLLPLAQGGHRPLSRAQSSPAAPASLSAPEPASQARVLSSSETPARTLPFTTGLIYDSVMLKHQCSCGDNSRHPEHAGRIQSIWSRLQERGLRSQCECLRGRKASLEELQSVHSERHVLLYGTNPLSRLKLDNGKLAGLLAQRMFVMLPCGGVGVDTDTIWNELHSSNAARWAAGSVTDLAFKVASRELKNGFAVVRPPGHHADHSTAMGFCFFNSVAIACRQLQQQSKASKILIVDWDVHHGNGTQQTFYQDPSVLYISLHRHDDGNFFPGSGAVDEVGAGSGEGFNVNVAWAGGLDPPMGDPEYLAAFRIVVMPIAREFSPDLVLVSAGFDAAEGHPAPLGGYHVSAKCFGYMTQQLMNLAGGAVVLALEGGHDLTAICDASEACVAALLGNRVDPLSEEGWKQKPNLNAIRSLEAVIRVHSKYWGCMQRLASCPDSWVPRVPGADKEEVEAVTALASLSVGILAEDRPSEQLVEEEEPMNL

[9] = target: Histone deacetylase 5 (Homo sapiens) (UniProt Q9UQL6); assay: Inhibition of human recombinant HDAC5 using Ac-Leu-Gly-Lys (Tfa)-AMC substrate incubated for 30 mins by fluorescence assay
[10] = target: Histone deacetylase 2 (Homo sapiens, UniProt Q92769); assay: Inhibition of human recombinant HDAC2 using Ac-Leu-Gly-Lys (Ac)-AMC substrate incubated for 30 mins by fluorescence assay
Histone deacetylase 2, sequence (Q92769 whole entry): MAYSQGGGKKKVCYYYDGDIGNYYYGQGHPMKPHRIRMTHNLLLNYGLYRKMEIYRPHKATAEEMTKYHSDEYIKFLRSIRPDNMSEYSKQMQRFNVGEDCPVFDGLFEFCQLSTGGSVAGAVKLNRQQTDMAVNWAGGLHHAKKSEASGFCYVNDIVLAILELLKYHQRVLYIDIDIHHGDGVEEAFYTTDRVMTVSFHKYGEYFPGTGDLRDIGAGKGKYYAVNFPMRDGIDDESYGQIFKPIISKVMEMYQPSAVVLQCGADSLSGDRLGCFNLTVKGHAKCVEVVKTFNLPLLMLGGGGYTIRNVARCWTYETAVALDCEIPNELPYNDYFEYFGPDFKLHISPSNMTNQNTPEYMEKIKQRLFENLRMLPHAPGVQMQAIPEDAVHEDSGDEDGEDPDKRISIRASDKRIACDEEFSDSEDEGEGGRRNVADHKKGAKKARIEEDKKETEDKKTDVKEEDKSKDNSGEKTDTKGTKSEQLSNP

[11] = target: T5, Polyamine deacetylase HDAC10 (Homo sapiens, UniProt Q969S8); assay: Inhibition of human recombinant HDAC10 using Ac-Arg-His-Lys (Ac)-Lys (Ac)-AMC substrate incubated for 30 mins by fluorescence assay
T5 sequence (Q969S8 whole entry): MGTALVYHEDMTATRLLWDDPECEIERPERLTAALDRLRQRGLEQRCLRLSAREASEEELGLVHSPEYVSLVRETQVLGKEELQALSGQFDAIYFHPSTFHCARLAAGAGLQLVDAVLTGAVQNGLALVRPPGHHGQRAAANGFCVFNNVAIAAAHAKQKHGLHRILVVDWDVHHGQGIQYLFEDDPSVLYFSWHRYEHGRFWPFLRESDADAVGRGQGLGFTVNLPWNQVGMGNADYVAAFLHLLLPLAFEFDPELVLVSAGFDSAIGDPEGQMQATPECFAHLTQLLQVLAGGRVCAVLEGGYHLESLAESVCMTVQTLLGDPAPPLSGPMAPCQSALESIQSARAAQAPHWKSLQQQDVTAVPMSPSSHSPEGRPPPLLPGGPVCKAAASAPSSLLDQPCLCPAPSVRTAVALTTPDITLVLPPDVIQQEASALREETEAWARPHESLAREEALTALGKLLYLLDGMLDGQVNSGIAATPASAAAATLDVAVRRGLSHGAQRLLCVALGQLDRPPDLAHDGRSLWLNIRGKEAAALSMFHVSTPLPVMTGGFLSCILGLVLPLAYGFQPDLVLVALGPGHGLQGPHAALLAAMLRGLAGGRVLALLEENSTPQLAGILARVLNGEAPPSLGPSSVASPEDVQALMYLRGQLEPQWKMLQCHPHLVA

[12] = target: Histone deacetylase 1 (Homo sapiens, UniProt Q13547); assay: Inhibition of human recombinant HDAC1 using Ac-Leu-Gly-Lys (Ac)-AMC substrate incubated for 30 mins by fluorescence assay
Histone deacetylase 1, sequence (Q13547 whole entry): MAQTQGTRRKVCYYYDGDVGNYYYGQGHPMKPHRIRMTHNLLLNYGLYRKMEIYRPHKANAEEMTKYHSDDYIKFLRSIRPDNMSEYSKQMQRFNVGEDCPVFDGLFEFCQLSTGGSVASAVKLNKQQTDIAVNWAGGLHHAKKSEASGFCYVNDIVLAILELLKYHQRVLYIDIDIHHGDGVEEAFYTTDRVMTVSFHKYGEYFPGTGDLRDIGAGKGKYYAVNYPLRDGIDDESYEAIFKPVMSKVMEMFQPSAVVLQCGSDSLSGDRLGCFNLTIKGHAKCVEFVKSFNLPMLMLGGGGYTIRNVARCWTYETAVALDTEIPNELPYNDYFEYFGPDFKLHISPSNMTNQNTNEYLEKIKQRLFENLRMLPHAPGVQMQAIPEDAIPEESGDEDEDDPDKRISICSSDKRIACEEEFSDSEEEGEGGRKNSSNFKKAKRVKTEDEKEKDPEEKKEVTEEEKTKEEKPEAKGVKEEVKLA

[13] = target: T6, Protein deacetylase HDAC6 (Homo sapiens) (UniProt Q9UBN7); assay: Inhibition of human recombinant HDAC6 using Ac-Leu-Gly-Lys (Ac)-AMC substrate incubated for 30 mins by fluorescence assay
T6 sequence (whole entry): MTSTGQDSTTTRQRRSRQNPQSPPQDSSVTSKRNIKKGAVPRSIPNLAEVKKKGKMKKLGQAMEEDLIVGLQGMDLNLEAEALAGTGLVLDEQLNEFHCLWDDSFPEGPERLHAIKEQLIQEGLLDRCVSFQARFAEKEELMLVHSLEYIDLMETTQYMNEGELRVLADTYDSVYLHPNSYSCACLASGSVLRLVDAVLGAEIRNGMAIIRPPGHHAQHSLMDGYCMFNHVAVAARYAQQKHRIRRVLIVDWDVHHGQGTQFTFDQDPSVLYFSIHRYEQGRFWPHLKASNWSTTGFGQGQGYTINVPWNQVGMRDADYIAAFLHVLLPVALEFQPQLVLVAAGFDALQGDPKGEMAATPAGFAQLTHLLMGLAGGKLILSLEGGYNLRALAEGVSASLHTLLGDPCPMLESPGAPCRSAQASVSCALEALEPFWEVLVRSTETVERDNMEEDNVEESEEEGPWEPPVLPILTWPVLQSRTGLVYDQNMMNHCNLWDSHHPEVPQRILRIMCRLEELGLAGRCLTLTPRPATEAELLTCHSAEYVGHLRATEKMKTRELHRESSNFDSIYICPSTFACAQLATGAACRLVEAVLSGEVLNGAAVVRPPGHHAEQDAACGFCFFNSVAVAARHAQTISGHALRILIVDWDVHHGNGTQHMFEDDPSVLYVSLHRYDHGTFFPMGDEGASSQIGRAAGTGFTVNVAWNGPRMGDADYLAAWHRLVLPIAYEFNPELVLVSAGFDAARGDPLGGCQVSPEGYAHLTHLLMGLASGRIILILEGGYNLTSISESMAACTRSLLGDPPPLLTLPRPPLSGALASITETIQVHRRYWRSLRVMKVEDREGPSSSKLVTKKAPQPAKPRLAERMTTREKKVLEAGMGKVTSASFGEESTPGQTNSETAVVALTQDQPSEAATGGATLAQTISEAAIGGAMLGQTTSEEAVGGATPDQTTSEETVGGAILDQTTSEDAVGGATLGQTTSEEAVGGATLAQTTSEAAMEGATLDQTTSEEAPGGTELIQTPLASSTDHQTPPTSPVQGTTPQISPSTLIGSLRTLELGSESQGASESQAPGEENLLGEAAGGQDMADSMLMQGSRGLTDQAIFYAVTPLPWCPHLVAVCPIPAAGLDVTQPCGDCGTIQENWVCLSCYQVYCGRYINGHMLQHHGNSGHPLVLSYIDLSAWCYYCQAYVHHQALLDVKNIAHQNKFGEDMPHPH

[14] = target: T1, Histone deacetylase 3/Nuclear receptor corepressor 2 (HDAC3/NCoR2); assay: Inhibition of human recombinant HDAC3/NCoR2 using Ac-Leu-Gly-Lys (Ac)-AMC substrate incubated for 30 mins by fluorescence assay; format: protein-complex assay

Row | SMILES | inhibition [1] | GI50 [2] [nM] | inhibition [3] | pKi [4] | inhibition [5] | pKi [6] | inhibition [7] | inhibition [8] | inhibition [9] | pKi [10] | pKi [11] | pKi [12] | inhibition [13] | pKi [14]
1 | CC(C)[C@H]1NC(=O)[C@@H](C)[C@@H](C/C=C\CCC(N)=O)NC(=O)[C@@H](Cc2ccc(O)cc2)NC(=O)[C@@H](C)NC1=O [AZUMAMIDE B] | inactive | > 50000 | – | – | – | – | – | – | – | – | – | – | – | –
2 | CCC[C@H]1NC(=O)[C@@H](Cc2ccc(O)cc2)NC(=O)[C@@H](C)NC(=O)[C@@H](C(C)C)NC(=O)[C@H]1C | inactive | > 50000 | inactive | 6.11 | inactive | 5.22 | inactive | inactive | inactive | 5.85 | 5.40 | 5.62 | inactive | 5.52
3 | CC(C)[C@H]1NC(=O)[C@@H](C)[C@@H](C/C=C\CCC(=O)O)NC(=O)[C@@H](Cc2ccc(O)cc2)NC(=O)[C@@H](C)NC1=O [AZUMAMIDE C] | inactive | > 25000 | – | 8.01 | – | 7.22 | – | – | – | 8.00 | 7.70 | 7.70 | – | 7.74
4 | CCC(=O)CCCCC[C@@H]1NC(=O)[C@H]2CCCCN2C(=O)[C@H]([C@@H](C)CC)NC(=O)[C@H](Cc2cn(OC)c3ccccc23)NC1=O [APICIDIN] | Active | 800 | – | – | – | – | – | – | – | – | – | – | – | –
